Calls of active or inactive are those of the source. No cut-off for these calls is given here.
Experiments:
THP-1 [1] = assay: Cytotoxicity against human THP1 cells assessed as cell growth inhibition after 48 hrs by SRB assay; type: functional, cell-based; settings: THP-1, 48 h
THP-1 [2] = assay: Cytotoxicity against human THP1 cells assessed as growth inhibition at 50 uM after 48 hrs by SRB assay relative to control; type: functional; settings: THP-1, 48 h, read-out: GI
HCT-116 [3] = assay: Cytotoxicity against human HCT116 cells assessed as growth inhibition at 50 uM after 48 hrs by SRB assay relative to control; type: functional; settings: HCT-116, 48 h, read-out: GI
PC-3 = assay: Cytotoxicity against human PC3 cells assessed as growth inhibition at 50 uM after 48 hrs by SRB assay relative to control; type: functional; settings: PC-3, 48 h, read-out: GI
COLO 205 [4] = assay: Cytotoxicity against human COLO205 cells assessed as cell growth inhibition after 48 hrs by SRB assay; type: functional, cell-based; settings: COLO 205, 48 h
HCT-116 [5] = assay: Cytotoxicity against human HCT116 cells assessed as cell growth inhibition after 48 hrs by SRB assay; type: functional, cell-based; settings: HCT-116, 48 h
COLO 205 [6] = assay: Cytotoxicity against human COLO205 cells assessed as growth inhibition at 50 uM after 48 hrs by SRB assay relative to control; type: functional; settings: COLO 205, 48 h, read-out: GI
Homo sapiens = species on record: Homo sapiens; assay: Inhibition of tubulin polymerization in human THP1 cells assessed as disrupted microtubule formation at 5 uM after 48 hrs by confocal microscopic analysis; type: cell-based
[7] = Inhibition of tubulin (unknown origin) polymerization; parameters: species or system Homo sapiens

O=C1C(=O)N(CCn2cc(COc3cc(=O)oc4ccccc34)nn2)c2ccc(Br)cc21
IC50 (THP-1 [1]): 6.43 µM | inhibition of growth at 50 µM (THP-1 [2]): 80% | inhibition of growth at 50 µM (HCT-116 [3]): 72% | inhibition of growth at 50 µM (PC-3): 21% | IC50 (COLO 205 [4]): 10.5 µM | IC50 (HCT-116 [5]): 8.09 µM | inhibition of growth at 50 µM (COLO 205 [6]): 65%

O=C1C(=O)N(CCCCn2cc(COc3cc(=O)oc4ccccc34)nn2)c2ccc([N+](=O)[O-])cc21
inhibition of growth at 50 µM (THP-1 [2]): 55% | inhibition of growth at 50 µM (HCT-116 [3]): 53% | inhibition of growth at 50 µM (PC-3): 8% | inhibition of growth at 50 µM (COLO 205 [6]): 45%

O=C1C(=O)N(CCCCn2cc(COc3cc(=O)oc4ccccc34)nn2)c2ccccc21
IC50 (THP-1 [1]): 5.12 µM | inhibition of growth at 50 µM (THP-1 [2]): 85% | inhibition of growth at 50 µM (HCT-116 [3]): 72% | inhibition of growth at 50 µM (PC-3): 19% | IC50 (COLO 205 [4]): 7.67 µM | IC50 (HCT-116 [5]): 8.05 µM | inhibition of growth at 50 µM (COLO 205 [6]): 68%

O=C1C(=O)N(CCCCCn2cc(COc3cc(=O)oc4ccccc34)nn2)c2ccccc21
inhibition of growth at 50 µM (THP-1 [2]): 69% | inhibition of growth at 50 µM (HCT-116 [3]): 65% | inhibition of growth at 50 µM (PC-3): 9% | inhibition of growth at 50 µM (COLO 205 [6]): 62%

O=C1C(=O)N(CCCCn2cc(COc3cc(=O)oc4ccccc34)nn2)c2ccc(F)cc21
IC50 (THP-1 [1]): 7.1 µM | inhibition of growth at 50 µM (THP-1 [2]): 77% | inhibition of growth at 50 µM (HCT-116 [3]): 67% | inhibition of growth at 50 µM (PC-3): 17% | IC50 (COLO 205 [4]): 9.11 µM | IC50 (HCT-116 [5]): 10.4 µM | inhibition of growth at 50 µM (COLO 205 [6]): 64%

O=C1C(=O)N(CCn2cc(COc3cc(=O)oc4ccccc34)nn2)c2ccc(I)cc21
IC50 (THP-1 [1]): 7.01 µM | inhibition of growth at 50 µM (THP-1 [2]): 74% | inhibition of growth at 50 µM (HCT-116 [3]): 70% | inhibition of growth at 50 µM (PC-3): 17% | IC50 (COLO 205 [4]): 12 µM | IC50 (HCT-116 [5]): 8.99 µM | inhibition of growth at 50 µM (COLO 205 [6]): 62%

O=C1C(=O)N(CCCCn2cc(COc3cc(=O)oc4ccccc34)nn2)c2ccc(Cl)cc21
IC50 (THP-1 [1]): 7.56 µM | inhibition of growth at 50 µM (THP-1 [2]): 71% | inhibition of growth at 50 µM (HCT-116 [3]): 62% | inhibition of growth at 50 µM (PC-3): 14% | IC50 (COLO 205 [4]): 13.1 µM | IC50 (HCT-116 [5]): 12.8 µM | inhibition of growth at 50 µM (COLO 205 [6]): 60%

O=C1C(=O)N(CCCCCn2cc(COc3cc(=O)oc4ccccc34)nn2)c2ccc(I)cc21
inhibition of growth at 50 µM (THP-1 [2]): 45% | inhibition of growth at 50 µM (HCT-116 [3]): 36% | inhibition of growth at 50 µM (COLO 205 [6]): 30%

O=C1C(=O)N(CCCn2cc(COc3cc(=O)oc4ccccc34)nn2)c2ccc([N+](=O)[O-])cc21
inhibition of growth at 50 µM (THP-1 [2]): 60% | inhibition of growth at 50 µM (HCT-116 [3]): 60% | inhibition of growth at 50 µM (PC-3): 12% | inhibition of growth at 50 µM (COLO 205 [6]): 52%

O=C1C(=O)N(CCn2cc(COc3cc(=O)oc4ccccc34)nn2)c2ccccc21
inhibition (Homo sapiens): Active | IC50 (THP-1 [1]): 0.73 µM | inhibition of growth at 50 µM (THP-1 [2]): 98% | inhibition of growth at 50 µM (HCT-116 [3]): 87% | inhibition of growth at 50 µM (PC-3): 28% | IC50 [7]: 1.06 µM | IC50 (COLO 205 [4]): 3.45 µM | IC50 (HCT-116 [5]): 3.04 µM | inhibition of growth at 50 µM (COLO 205 [6]): 80%

O=C1C(=O)N(CCCn2cc(COc3cc(=O)oc4ccccc34)nn2)c2ccc(Br)cc21
IC50 (THP-1 [1]): 7.14 µM | inhibition of growth at 50 µM (THP-1 [2]): 72% | inhibition of growth at 50 µM (HCT-116 [3]): 66% | inhibition of growth at 50 µM (PC-3): 14% | IC50 (COLO 205 [4]): 13 µM | IC50 (HCT-116 [5]): 11.5 µM | inhibition of growth at 50 µM (COLO 205 [6]): 61%

O=C1C(=O)N(CCn2cc(COc3cc(=O)oc4ccccc34)nn2)c2ccc(Cl)cc21
IC50 (THP-1 [1]): 5.47 µM | inhibition of growth at 50 µM (THP-1 [2]): 87% | inhibition of growth at 50 µM (HCT-116 [3]): 70% | inhibition of growth at 50 µM (PC-3): 22% | IC50 (COLO 205 [4]): 8.87 µM | IC50 (HCT-116 [5]): 5.77 µM | inhibition of growth at 50 µM (COLO 205 [6]): 76%

O=C1C(=O)N(CCn2cc(COc3cc(=O)oc4ccccc34)nn2)c2ccc(F)cc21
IC50 (THP-1 [1]): 1.99 µM | inhibition of growth at 50 µM (THP-1 [2]): 92% | inhibition of growth at 50 µM (HCT-116 [3]): 80% | inhibition of growth at 50 µM (PC-3): 26% | IC50 [7]: 3.55 µM | IC50 (COLO 205 [4]): 6.67 µM | IC50 (HCT-116 [5]): 5.41 µM | inhibition of growth at 50 µM (COLO 205 [6]): 76%

O=C1C(=O)N(CCCCCn2cc(COc3cc(=O)oc4ccccc34)nn2)c2ccc(F)cc21
inhibition of growth at 50 µM (THP-1 [2]): 63% | inhibition of growth at 50 µM (HCT-116 [3]): 59% | inhibition of growth at 50 µM (COLO 205 [6]): 56%
